Test [1] has as its target Retinoic acid receptor gamma (Homo sapiens) (UniProt P13631). The test is described as follows: Agonist activity at gal-RARgamma expressed in african green monkey CV1 cells co-expressing MH100 up to 10 uM by luciferase reporter gene assay relative to control. The following applies: CV-1. It counts as functional, cell-based.
The target of test [2] is Vitamin D3 receptor (Homo sapiens) (UniProt P11473). The experiment in a line: Agonist activity at VP16-VDR expressed in african green monkey CV1 cells co-expressing MH100 up to 10 uM by luciferase reporter gene assay relative to control. As to conditions: CV-1. It counts as functional, cell-based.
Sequence of Vitamin D3 receptor (Homo sapiens) (P11473 whole entry): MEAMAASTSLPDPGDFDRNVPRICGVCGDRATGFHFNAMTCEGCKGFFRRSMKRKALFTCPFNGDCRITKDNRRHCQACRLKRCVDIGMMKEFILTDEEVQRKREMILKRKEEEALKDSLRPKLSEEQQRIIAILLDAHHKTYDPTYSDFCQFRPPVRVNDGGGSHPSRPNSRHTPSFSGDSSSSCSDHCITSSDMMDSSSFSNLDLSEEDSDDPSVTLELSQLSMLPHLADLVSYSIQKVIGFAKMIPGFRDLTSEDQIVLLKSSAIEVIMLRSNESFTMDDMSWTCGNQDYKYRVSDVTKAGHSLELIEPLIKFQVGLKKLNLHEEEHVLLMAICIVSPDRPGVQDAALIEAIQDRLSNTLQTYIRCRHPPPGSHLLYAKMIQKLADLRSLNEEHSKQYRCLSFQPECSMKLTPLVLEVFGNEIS
Test [3] concerns the target Estrogen receptor beta (Homo sapiens) (UniProt Q92731). The experiment in a line: Antagonist activity at gal-ERbeta expressed in african green monkey CV1 cells co-expressing MH100 by luciferase reporter gene assay. It is filed as functional, cell-based. As to conditions: CV-1.
Test [4] concerns the target T1, Peroxisome proliferator-activated receptor delta (Homo sapiens) (UniProt Q03181).
T1 sequence (whole entry): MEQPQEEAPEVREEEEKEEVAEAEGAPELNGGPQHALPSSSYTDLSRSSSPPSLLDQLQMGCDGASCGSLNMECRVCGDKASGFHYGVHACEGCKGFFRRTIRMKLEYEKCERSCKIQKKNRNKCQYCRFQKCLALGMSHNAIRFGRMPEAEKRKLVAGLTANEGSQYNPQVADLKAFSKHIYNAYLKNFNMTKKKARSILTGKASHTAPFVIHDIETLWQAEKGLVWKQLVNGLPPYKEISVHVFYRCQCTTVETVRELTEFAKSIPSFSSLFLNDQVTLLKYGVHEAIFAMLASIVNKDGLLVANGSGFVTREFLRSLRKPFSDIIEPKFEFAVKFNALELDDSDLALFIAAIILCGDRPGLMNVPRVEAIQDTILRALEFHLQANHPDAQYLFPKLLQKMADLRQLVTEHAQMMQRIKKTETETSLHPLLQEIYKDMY
The test is described as follows: Agonist activity at PPARdelta expressed in african green monkey CV1 cells co-expressing MH100 by luciferase reporter gene assay. It counts as functional, cell-based. The following applies: CV-1.

Test [5] has as its target T2, Peroxisome proliferator-activated receptor gamma (Homo sapiens) (UniProt P37231).
T2 sequence (whole entry): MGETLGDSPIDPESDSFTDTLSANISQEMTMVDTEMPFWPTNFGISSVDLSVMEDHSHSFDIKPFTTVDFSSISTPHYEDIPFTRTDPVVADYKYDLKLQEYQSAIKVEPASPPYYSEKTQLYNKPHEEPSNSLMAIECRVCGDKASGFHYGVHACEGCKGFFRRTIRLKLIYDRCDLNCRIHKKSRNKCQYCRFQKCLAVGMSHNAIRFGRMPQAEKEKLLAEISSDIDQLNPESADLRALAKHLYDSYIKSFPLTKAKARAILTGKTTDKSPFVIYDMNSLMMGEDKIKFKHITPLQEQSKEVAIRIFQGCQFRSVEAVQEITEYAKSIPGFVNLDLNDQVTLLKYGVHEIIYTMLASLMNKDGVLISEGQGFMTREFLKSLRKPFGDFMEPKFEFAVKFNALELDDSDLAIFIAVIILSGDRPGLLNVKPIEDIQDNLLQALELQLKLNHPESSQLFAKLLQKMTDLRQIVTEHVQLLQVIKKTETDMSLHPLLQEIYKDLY
The experiment in a line: Agonist activity at PPARgamma expressed in african green monkey CV1 cells co-expressing PPRE by luciferase reporter gene assay. It is filed as functional, cell-based. As to conditions: CV-1.

The target of test [6] is Oxysterols receptor LXR-alpha (Homo sapiens) (UniProt Q13133). The experiment in a line: Agonist activity at LXRalpha expressed in african green monkey CV1 cells co-expressing LXRE up to 10 uM by luciferase reporter gene assay relative to control. As to conditions: CV-1. It counts as functional, cell-based.
Sequence of Oxysterols receptor LXR-alpha (Homo sapiens) (Q13133 whole entry): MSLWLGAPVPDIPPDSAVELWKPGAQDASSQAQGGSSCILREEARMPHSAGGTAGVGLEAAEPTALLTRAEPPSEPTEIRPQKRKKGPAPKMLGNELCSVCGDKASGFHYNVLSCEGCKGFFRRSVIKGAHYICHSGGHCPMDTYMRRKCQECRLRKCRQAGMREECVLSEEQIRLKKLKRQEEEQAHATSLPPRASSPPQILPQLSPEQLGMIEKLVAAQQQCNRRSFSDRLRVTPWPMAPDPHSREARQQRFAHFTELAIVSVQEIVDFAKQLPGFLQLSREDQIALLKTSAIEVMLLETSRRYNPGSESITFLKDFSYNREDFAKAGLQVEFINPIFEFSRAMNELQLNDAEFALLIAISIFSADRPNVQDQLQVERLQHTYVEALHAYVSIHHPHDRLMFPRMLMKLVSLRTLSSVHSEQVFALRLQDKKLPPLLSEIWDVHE
For test [7], the target named is Retinoic acid receptor gamma (Homo sapiens) (UniProt P13631). The test is described as follows: Agonist activity at gal-RARgamma expressed in african green monkey CV1 cells co-expressing MH100 by luciferase reporter gene assay. It counts as functional, cell-based. The following applies: CV-1.
Sequence of Retinoic acid receptor gamma (Homo sapiens) (P13631 whole entry): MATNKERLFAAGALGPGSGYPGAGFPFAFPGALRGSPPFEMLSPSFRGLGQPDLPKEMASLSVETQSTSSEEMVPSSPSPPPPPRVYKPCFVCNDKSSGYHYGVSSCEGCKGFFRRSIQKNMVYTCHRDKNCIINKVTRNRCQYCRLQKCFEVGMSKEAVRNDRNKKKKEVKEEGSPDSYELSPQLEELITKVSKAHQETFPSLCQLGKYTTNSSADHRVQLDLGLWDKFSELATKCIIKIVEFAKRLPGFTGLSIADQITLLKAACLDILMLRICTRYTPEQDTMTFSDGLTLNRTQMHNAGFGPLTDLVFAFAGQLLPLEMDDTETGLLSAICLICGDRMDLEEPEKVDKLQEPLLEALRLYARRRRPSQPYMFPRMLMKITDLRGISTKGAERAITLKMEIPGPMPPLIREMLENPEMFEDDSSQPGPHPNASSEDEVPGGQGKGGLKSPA
A further test relates to Mus musculus. The experiment in a line: Reduction of plasma triglyceride level in western diet-induced hyperlipidemia LDLR knockout mouse model at 1 mg/kg, po administered for 6 weeks. It is filed as functional. Further details: scale not given: the % may be the effect or the level left.
The target in test [8] is T3, Bile acid receptor (Homo sapiens) (UniProt Q96RI1).
T3 sequence (whole entry): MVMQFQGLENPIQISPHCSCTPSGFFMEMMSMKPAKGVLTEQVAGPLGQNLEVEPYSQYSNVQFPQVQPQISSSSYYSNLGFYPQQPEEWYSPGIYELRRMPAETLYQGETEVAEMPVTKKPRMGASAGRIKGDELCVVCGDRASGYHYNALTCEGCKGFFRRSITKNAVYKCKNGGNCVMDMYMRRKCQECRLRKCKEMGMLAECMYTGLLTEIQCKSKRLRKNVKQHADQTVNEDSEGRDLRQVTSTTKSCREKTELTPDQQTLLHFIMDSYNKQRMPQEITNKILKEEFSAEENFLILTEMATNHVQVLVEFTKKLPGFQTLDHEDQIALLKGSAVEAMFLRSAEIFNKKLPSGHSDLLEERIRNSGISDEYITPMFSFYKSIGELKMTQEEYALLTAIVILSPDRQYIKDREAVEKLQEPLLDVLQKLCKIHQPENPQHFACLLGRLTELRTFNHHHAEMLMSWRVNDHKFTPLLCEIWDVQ
The experiment in a line: Antagonist activity at human FXR expressed in african green monkey CV1 cells co-expressing RXRE with RXR co-factor by luciferase reporter gene assay. As to conditions: CV-1. It counts as functional, cell-based.

Test [9] addresses T4, Androgen receptor (Homo sapiens) (UniProt P10275).
T4 sequence (whole entry): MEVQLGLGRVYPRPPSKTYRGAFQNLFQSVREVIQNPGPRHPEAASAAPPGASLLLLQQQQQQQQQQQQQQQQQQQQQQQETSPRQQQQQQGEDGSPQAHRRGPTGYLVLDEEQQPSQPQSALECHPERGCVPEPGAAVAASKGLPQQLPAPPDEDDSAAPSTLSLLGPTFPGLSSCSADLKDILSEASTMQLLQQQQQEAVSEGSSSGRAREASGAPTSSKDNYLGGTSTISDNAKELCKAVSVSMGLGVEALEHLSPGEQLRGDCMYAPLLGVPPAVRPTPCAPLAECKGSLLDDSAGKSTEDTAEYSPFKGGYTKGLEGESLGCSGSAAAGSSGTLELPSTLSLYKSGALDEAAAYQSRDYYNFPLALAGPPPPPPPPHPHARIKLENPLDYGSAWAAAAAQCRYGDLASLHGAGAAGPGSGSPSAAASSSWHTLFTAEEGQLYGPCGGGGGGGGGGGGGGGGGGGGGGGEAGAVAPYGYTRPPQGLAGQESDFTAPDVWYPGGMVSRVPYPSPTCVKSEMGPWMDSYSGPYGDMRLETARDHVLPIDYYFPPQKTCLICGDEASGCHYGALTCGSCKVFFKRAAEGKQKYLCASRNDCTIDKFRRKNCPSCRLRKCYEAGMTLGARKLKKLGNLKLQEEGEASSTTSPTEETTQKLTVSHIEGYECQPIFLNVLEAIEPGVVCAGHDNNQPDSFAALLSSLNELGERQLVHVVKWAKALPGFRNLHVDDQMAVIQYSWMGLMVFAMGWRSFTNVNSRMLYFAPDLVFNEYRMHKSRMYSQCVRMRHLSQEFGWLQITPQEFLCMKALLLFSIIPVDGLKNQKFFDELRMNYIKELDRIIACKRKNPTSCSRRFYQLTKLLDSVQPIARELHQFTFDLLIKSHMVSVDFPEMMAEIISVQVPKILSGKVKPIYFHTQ
The experiment in a line: Agonist activity at human gal-AR expressed in african green monkey CV1 cells co-expressing MH100 with pGRIP1 co-factor by luciferase reporter gene assay. The following applies: CV-1. It is filed as functional, cell-based.

The source made the active and inactive calls. The calls are words filed in the database; no cut-off is given here.

Sequence of Estrogen receptor beta (Homo sapiens) (Q92731 whole entry): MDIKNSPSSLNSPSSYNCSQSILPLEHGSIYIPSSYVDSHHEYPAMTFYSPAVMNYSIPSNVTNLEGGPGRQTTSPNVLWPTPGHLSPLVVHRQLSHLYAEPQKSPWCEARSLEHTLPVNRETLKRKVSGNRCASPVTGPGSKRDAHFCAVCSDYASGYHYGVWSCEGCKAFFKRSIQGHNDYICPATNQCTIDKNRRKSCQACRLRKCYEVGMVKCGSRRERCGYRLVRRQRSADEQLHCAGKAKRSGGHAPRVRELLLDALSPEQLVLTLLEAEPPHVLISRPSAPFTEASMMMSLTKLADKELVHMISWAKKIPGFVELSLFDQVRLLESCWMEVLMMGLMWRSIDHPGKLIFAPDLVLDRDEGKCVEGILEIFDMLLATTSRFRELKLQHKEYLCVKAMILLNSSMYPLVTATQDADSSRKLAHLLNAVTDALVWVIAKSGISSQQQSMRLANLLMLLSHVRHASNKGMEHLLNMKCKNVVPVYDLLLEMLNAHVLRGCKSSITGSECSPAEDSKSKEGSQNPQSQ

Turning to `CC(C)OC(=O)C1=CN(C(=O)c2ccc(F)c(F)c2)CC(C)(C)c2c1[nH]c1ccccc21` [TUROFEXORATE ISOPROPYL], the result in [1], in test [2], in test [3], in [4], in test [5] and in [6] was inactive. Also, the outcome in [7], in test [8] and in [9] was inactive. The same compound displayed an Activity in the test on Mus musculus of 19%.
